Measurements from patent publication US6720346B2, “Thiazole benzamide derivatives and pharmaceutical compositions for inhibiting cell proliferation” (Agouron Pharmaceuticals, Inc., priority 2001, dated 2004).

Experiments:
[1] = system: HCT-116 cell line; assay: Inhibition of cell growth, MTT tetrazolium salt assay; type: cell-based; conditions: for IC50: Homo sapiens, HCT-116, 120 h, MTT, three to five days
Method in brief: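 Growth inhibition was read as MTT-formazan absorbance at 540 nm, after 4 h with 0.2 mg/mL MTT. Before that, HCT-116 cells had been exposed 3–5 days at 37 °C to compounds in 0.5% (v/v) DMSO, added 4 h after plating. 50% and 90% inhibitory concentrations were taken from semi-log concentration–inhibition plots versus vehicle controls.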

[2] = target: T1, human CDK4/cyclin D3 (Homo sapiens, UniProt P11802); assay: Inhibition of CDK4/cyclin D retinoblastoma kinase activity (Ki; % inhibition); type: biochemical; conditions: for Ki: apparent Ki, CDK4/cyclin D3, Rb substrate
T1 construct: made in house; host or cells: insect cells co-infected with baculovirus vectors
T1 sequence (P11802 whole entry): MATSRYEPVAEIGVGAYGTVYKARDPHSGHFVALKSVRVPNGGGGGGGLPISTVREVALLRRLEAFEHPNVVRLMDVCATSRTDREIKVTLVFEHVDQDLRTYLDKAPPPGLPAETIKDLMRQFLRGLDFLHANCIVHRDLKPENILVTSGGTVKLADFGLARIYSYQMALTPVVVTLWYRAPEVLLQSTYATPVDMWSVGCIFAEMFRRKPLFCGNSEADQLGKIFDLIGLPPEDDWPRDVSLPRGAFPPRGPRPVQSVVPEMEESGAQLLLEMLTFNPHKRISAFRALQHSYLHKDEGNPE
T1 sequence (P30281 1-264 partner limits assumed): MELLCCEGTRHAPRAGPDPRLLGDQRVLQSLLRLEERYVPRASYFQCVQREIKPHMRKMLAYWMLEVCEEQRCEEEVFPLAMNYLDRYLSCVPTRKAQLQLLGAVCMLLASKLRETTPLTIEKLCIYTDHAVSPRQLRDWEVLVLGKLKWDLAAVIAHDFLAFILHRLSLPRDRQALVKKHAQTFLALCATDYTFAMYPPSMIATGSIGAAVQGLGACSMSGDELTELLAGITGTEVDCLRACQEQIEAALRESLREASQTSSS
Method in brief: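 Insect-cell-expressed CDK4 with truncated cyclin D3 (1-264), 5 nM, phosphorylating His-tagged Rb fragment (386-928) with 25 μM [32/33P]ATP at pH 7.4, 30 °C, 20 min (60 min for tight binders). Filter capture, phosphorimager read; % inhibition at 30 nM compound, Ki from competitive or tight-binding fits.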

[3] = target: T2, CDK2/cyclin A (Homo sapiens, UniProt P24941); assay: Inhibition of CDK2/cyclin A retinoblastoma kinase activity (Ki; % inhibition); type: biochemical; conditions: for Ki: apparent Ki, CDK2/cyclin A, Rb substrate
T2 construct: made in house; host or cells: CDK2: insect cells (baculovirus); cyclin A: E. coli
Method in brief: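 Radiometric filter assay of CDK2/proteolyzed cyclin A (baculovirus-expressed human CDK2, 10 or 19 nM) phosphorylating an Rb fragment with 25 μM [³²P/³³P]ATP in pH 7.4 HEPES, 2% DMSO, at 30 °C for 60 or 75 min under initial-rate conditions. Library compounds screened at 30 nM for % inhibition; apparent Ki from concentration series fit to competitive or tight-binding inhibition equations.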

[4] = HCT-116 cells, 0.25 μM compound

SMILES | HCT-116 % Inhibition at 0.1 μM ([1]; HCT-116 cells, 0.1 μM compound) [%] | HCT-116 % Inhibition at 0.25 μM [1, 4] [%] | CDK4 % Inhibition at 0.03 μM ([2]; 0.03 μM compound) [%] | CDK2 % Inhibition at 0.03 μM ([3]; 0.03 μM compound) [%] | HCT-116 % Inhibition at 0.25 μM ([1]; HCT-116, at 0.25 μM) [%] | CDK4 % Inhibition at 0.03 μM ([2]; at 0.03 μM) [%] | CDK2 % Inhibition at 0.03 μM ([3]; at 0.03 μM) [%] | further results
Cc1ccc(CNC(=O)c2ccc(Nc3nc(N)c(C(=O)c4c(F)cccc4F)s3)cc2)cc1Cl [Example G275] | 25 | 63 | 19 | 27 |  |  |  | 
Nc1nc(Nc2ccc(C(=O)Nc3ccccc3N3CCOCC3)cc2)sc1C(=O)c1c(F)cccc1F [Example G146] |  |  |  |  | 52 | 7 | 6 | HCT-116 % Inhibition at 0.1 μM ([1]; HCT-116, at 0.1 μM): 1%
NC(=O)CNC(=O)c1ccc(Nc2nc(N)c(C(=O)c3c(Cl)cccc3Cl)s2)cc1 [Example B1, 4-[4-Amino-5-(2,6-dichloro-benzoyl)-thiazol-2-ylamino]-N-carbamoylmethyl-benzamide] |  |  |  |  |  |  |  | IC50 [1]: 18000 nM; Ki [2]: 17 nM; Ki [3]: 65 nM
CCCCNC(=O)c1ccc(Nc2nc(N)c(C(=O)c3c(F)cccc3F)s2)cc1 [Example G186] |  |  |  |  | 51 | 30 | 7 | HCT-116 % Inhibition at 0.1 μM ([1]; HCT-116, at 0.1 μM): 14%
CCOc1ccccc1CNC(=O)c1ccc(Nc2nc(N)c(C(=O)c3c(F)cccc3F)s2)cc1 [Example G285] | 1 | 60 | 18 | 13 |  |  |  | 
CC(NC(=O)c1ccc(Nc2nc(N)c(C(=O)c3c(F)cccc3F)s2)cc1)C1CCCCC1 (centres unmarked) [Example G300] |  |  |  |  |  |  |  | HCT-116 % Inhibition at 0.1 μM ([1]; HCT-116 cells, 0.1 μM compound, 0.1 µM): 18%; HCT-116 % Inhibition at 0.25 μM ([1]; HCT-116 cells, 0.25 μM compound, 0.25 µM): 70%; CDK4 % Inhibition at 0.03 μM ([2]; 0.03 μM compound, 0.03 µM): −10%; CDK2 % Inhibition at 0.03 μM ([3]; 0.03 μM compound, 0.03 µM): −18%
COc1ccc(CCNC(=O)c2ccc(Nc3nc(N)c(C(=O)c4c(F)cccc4F)s3)cc2)cc1 [Example G238] | 22 | 58 | 26 | 18 |  |  |  | 
Nc1ccccc1CNC(=O)c1ccc(Nc2nc(N)c(C(=O)c3c(F)cccc3F)s2)cc1 [Example G384] | 38 | 84 | 23 | 45 |  |  |  | 
CCN(CCc1ccccn1)C(=O)c1ccc(Nc2nc(N)c(C(=O)c3c(F)cccc3F)s2)cc1 [Example G251] | 16 | 48 | 11 | 10 |  |  |  | 
COC(=O)CN(C)C(=O)c1ccc(Nc2nc(N)c(C(=O)c3c(F)cccc3F)s2)cc1 [Example G50] |  |  |  |  | 61 | 10 | 9 | 
CCN(CC)CCNC(=O)c1ccc(Nc2nc(N)c(C(=O)c3c(F)cccc3F)s2)cc1 [Example G157] |  |  |  |  | 87 | 30 | 18 | HCT-116 % Inhibition at 0.1 μM ([1]; HCT-116, at 0.1 μM): 0%
Nc1nc(Nc2ccc(C(=O)N3CCN(c4ccccn4)CC3)cc2)sc1C(=O)c1c(F)cccc1F [Example C201] | 17 | 43 | 26 | 6 |  |  |  | 
Nc1nc(Nc2ccc(C(=O)NC[C@@H]3CCCC[C@H]3O)cc2)sc1C(=O)c1c(F)cccc1F (relative stereo) [Example G350] | 24 | 41 | 9 | 4 |  |  |  | 
Cn1cncc1CNC(=O)c1ccc(Nc2nc(N)c(C(=O)c3c(F)cccc3F)s2)cc1 [Example A64, 4-[4-Amino-5-(2,6-difluoro-benzoyl)-thiazol-2-ylamino]-N-(1-methylimidazol-5-yl-methyl)-benzamide] |  |  |  |  |  |  |  | IC50 [1]: > 5000 nM; Ki [2]: 22 nM; Ki [3]: 19 nM
Nc1nc(Nc2ccc(C(=O)N3CCOCC3)cc2)sc1C(=O)c1c(F)cccc1F [Example G10] |  |  |  |  | 51 | −2 | −4 | 
